The results in this text go back to US8809347B2, “Bicyclic aryl and bicyclic heteroaryl substituted triazoles useful as AXL inhibitors” (Rigel Pharmaceuticals, Inc., priority 2006, dated 2014).

Structures are written as SMILES.

The target in this experiment is T1, Axl (Homo sapiens, UniProt P30530).
T1 construct: Cells: Hela cells; endogenous in cells; host or cells: HeLa cells
T1 sequence (P30530 26-894): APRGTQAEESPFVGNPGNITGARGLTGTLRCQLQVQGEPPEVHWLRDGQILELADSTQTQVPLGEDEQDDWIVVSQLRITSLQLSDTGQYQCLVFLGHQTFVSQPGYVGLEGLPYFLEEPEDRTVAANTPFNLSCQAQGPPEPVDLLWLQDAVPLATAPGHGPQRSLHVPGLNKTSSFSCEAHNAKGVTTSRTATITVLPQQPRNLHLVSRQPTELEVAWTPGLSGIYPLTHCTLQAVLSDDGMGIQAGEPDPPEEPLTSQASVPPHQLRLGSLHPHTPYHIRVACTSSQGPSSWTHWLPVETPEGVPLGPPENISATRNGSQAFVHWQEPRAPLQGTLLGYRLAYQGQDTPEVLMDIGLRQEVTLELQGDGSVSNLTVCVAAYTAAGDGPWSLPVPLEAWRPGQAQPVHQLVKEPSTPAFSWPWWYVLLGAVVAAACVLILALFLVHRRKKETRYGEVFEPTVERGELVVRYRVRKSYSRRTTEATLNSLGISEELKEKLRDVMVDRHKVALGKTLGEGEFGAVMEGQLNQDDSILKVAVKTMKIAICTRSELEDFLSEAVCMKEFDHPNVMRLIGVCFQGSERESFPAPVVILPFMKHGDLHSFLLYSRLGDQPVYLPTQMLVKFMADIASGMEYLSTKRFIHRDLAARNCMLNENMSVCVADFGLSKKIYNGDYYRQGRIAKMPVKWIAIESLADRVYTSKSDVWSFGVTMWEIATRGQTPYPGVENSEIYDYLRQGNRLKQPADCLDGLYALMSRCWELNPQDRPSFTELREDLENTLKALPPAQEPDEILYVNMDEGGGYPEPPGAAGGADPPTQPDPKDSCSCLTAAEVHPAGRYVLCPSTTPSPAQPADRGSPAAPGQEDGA
As to the kind of experiment: Phospho-Akt in-cell Western assay (inhibition of Axl activity). It counts as cell-based. Particulars: Hela cells; 1 hr pre-treatment; stimulation by Axl-antibody cross-linking; phospho-Akt chemiluminescence normalized to relative cell number. As for the experimental part: The compounds of the invention were tested in the following assay for their ability to inhibit Axl activity.
Phospho-Akt in-Cell Western Assay
• Cell culture plate: 96 well assay plate (Corning 3610), white, clear bottom, tissue-culture treated. • Cells: Hela cells. • Starvation medium: For Axl stimulation: 0.5% FCS (fetal calf serum) in DMEM, plus Axl/Fc (extracellular domain of AXL fused to immunoglobulin Fc region) (R&D, 154-AL) 500 ng/mL. • For EGF (epidermal growth factor) stimulation: 0.5% FCS in DMEM (Dulbecco's modified Eagles medium). • Poly-L-Lysine 0.01% solution (the working solution): […], dilute In PBS (phosphate buffered saline). • Axl antibody cross-linking: • 1st: Mouse anti-Axl (R&D, MAB154). • 2nd: Biotin-SP-conjugated AffiniPure goat anti-mouse IgG (H+ L) (Jackson ImmunoResearch #115-065-003). • Fixing buffer: 4% formaldehyde in PBS. • Wash buffer: 0.1% TritonX-100 in PBS. • Quenching buffer: 3% H2O2, 0.1% Azide in wash buffer, Azide and hydrogen peroxide (H2O2) are added fresh. • Blocking buffer: 5% BSA in TBST (tris buffered saline plus 0.1% Tween 20). • Primary antibody: Rabbit anti-human Phospho-Akt antibody (Cell Signaling 9271): 1×250 diluted in blocking buffer. • Secondary antibody: HRP (horse radish peroxidase)-conjugated Goat anti-Rabbit secondary, stock solution: Jackson ImmunoResearch (Goat anti-Rabbit HRP, #111-035-144) 1:1 diluted in glycerol, store at −20° C. The working solution: 1×2000 dilution of stock in blocking buffer. • Chemiluminescent working solution (Pierce, 37030): SuperSignal ELISA (enzyme linked immunosorbant assay) Pico Chemiluminescent substrate. • Crystal Violet solution: Stock: 2.5% Crystal violet in methanol, filtered and kept at ambient temperature. The working solution: dilute the stock 1:20 with PBS immediately before use. • 10% SDS: working solution: 5% SDS (sodium dodecylsulfate), diluted in PBS Methods: Day 1:
A 96 well TC (tissue culture treated) plate was coated with 10 μg/mL poly-L-Lysine at 37° C. for 30 min, washed twice with PBS, and air-dried for 5 minutes before cells were added. Hela cells were seeded at 10,000 cells/well and the cells were starved in 100 μL starvation medium containing Axl/Fc for 24 hrs.
The cells were pre-treated with test compounds by adding 100 μL of 2× test compound to the starvation medium on the cells. The cells were incubated at 37° C. for 1 hr before stimulation.
The cells were stimulated by Axl-antibody cross-linking as follows: A 5× 1st/2nd Axl antibody mixture was made (37.5 μg/mL 1st/100 μg/mL 2nd) in starvation medium and nutated at 4° C. with thorough mixing for 1-2 hours for clustering. The resulting mix was warmed to 37° C. 50 μL of 5× Axl 1st/2nd of antibody cluster was added to the cells and the cells were incubated at 37° C. for 5 min.
After 5 minutes stimulation, the plate was flicked to remove medium and the plate was tapped onto paper towels. Formaldehyde (4.0% in PBS, 100 μL) was added to fix the cells and the cells were incubated at ambient temperature for 20 min without shaking.
The cells were washed with a plate washer buffer to remove the formaldehyde solution. The plate was flicked to removed excess wash buffer and tapped onto paper towels. Quenching buffer (100 μL) was added to each well and the cells were incubated at ambient temperature for 20 minutes without shaking.
The cells were washed with a plate washer buffer to remove the quenching buffer. Blocking buffer (100 μL) was added and the cells were incubated at ambient temperature for at least an hour with gentle shaking.
The cells were washed with a plate washer buffer and diluted primary antibody (50 μL) was added to each well (blocking buffer was added to the negative control wells instead). The plates were incubated overnight at 4° C. with gentle shaking.
The wash buffer was removed, diluted secondary antibody (100 μL) was added, and the cells were incubated at ambient temperature for 1 hour with gentle shaking. […]

The IC50 is the point on the concentration scale where inhibition reaches its midpoint. Turning to `Nc1nc(Nc2ccc(OCCN3CCCC3)cc2)nn1-c1ncc2c(n1)CCCCCC2` [Compound 1, 1-(5,6,7,8,9,10-hexahydrocycloocta[d]pyrimidin-2-yl)-N^3-(4-(2-(pyrrolidin-1-yl)ethoxy)phenyl)-1H-1,2,4-triazole-3,5-diamine], the IC50 is less than 1000 nM.

Consider `CN1CCN(c2ccc(Nc3nc(N)n(-c4ncc5c(n4)CCCCCC5)n3)cc2)CC1` [Compound 2, 1-(5,6,7,8,9,10-hexahydrocycloocta[d]pyrimidin-2-yl)-N^3-(4-(4-methylpiperazin-1-yl)phenyl)-1H-1,2,4-triazole-3,5-diamine], for which the half-maximal inhibitory concentration (IC50) was less than 1000 nM.

Take `Nc1nc(Nc2ccc(N3CCN(C4CC5CCC4C5)CC3)cc2)nn1-c1ncc2c(n1)CCCCCC2` (centres unmarked) [Compound 3, N^3-(4-(4-(bicyclo[2.2.1]heptan-2-yl)piperazin-1-yl)phenyl)-1-(5,6,7,8,9,10-hexahydrocycloocta[d]pyrimidin-2-yl)-1H-1,2,4-triazole-3,5-diamine]: the half-maximal inhibitory concentration (IC50) was less than 1000 nM.

In the case of `CN1CCCN(c2ccc(Nc3nc(N)n(-c4ncc5c(n4)CCCCCC5)n3)cc2F)CC1` [Compound 4, N^3-(3-fluoro-4-(4-methyl-1,4-diazepan-1-yl)phenyl)-1-(5,6,7,8,9,10-hexahydrocycloocta[d]pyrimidin-2-yl)-1H-1,2,4-triazole-3,5-diamine], the IC50 was less than 1000 nM.

For the compound `Nc1nc(Nc2ccc(N3CCN(C4CCCCC4)CC3)cc2)nn1-c1ncc2c(n1)CCCCCC2` [Compound 5, N^3-(4-(4-cyclohexylpiperazin-1-yl)phenyl)-1-(5,6,7,8,9,10-hexahydrocycloocta[d]pyrimidin-2-yl)-1H-1,2,4-triazole-3,5-diamine], the IC50 is less than 1000 nM.

Turning to `CN(C)[C@@H]1CCN(c2ccc(Nc3nc(N)n(-c4ncc5c(n4)CCCCCC5)n3)cc2)C1` [Compound 6, (R)—N^3-(4-(3-(dimethylamino)pyrrolidin-1-yl)phenyl)-1-(5,6,7,8,9,10-hexahydrocycloocta[d]pyrimidin-2-yl)-1H-1,2,4-triazole-3,5-diamine], the half-inhibitory concentration (IC50) fell in the range of 1000 to 10000 nM.

For the compound `CN(C)[C@H]1CCN(c2ccc(Nc3nc(N)n(-c4ncc5c(n4)CCCCCC5)n3)cc2)C1` [Compound 7, (S)—N^3-(4-(3-(dimethylamino)pyrrolidin-1-yl)phenyl)-1-(5,6,7,8,9,10-hexahydrocycloocta[d]pyrimidin-2-yl)-1H-1,2,4-triazole-3,5-diamine], the IC50 lay in the range of 1000 to 10000 nM.

As for `Nc1nc(Nc2ccc(N3CCN(C4CCCCC4)CC3)c(Cl)c2)nn1-c1ncc2c(n1)CCCCCC2` [Compound 8, N^3-(3-chloro-4-(4-cyclohexylpiperazin-1-yl)phenyl)-1-(5,6,7,8,9,10-hexahydrocycloocta[d]pyrimidin-2-yl)-1H-1,2,4-triazole-3,5-diamine], the IC50 was less than 1000 nM.

Consider `CN1CCN(Cc2ccc(Nc3nc(N)n(-c4ncc5c(n4)CCCCCC5)n3)cc2)CC1` [Compound 9, 1-(5,6,7,8,9,10-hexahydrocycloocta[d]pyrimidin-2-yl)-N^3-(4-((4-methylpiperazin-1-yl)methyl)phenyl)-1H-1,2,4-triazole-3,5-diamine], for which the half-maximal inhibitory concentration (IC50) lay in the range of 1000 to 10000 nM.

For the compound `Nc1nc(Nc2ccc(N3CCC(N4CCCC4)CC3)c(F)c2)nn1-c1ncc2c(n1)CCCCCC2` [Compound 10, N^3-(3-fluoro-4-(4-(pyrrolidin-1-yl)piperidin-1-yl)phenyl)-1-(5,6,7,8,9,10-hexahydrocycloocta[d]pyrimidin-2-yl)-1H-1,2,4-triazole-3,5-diamine], the half-inhibitory concentration (IC50) is less than 1000 nM.

Turning to `CN1CCc2ccc(Nc3nc(N)n(-c4ncc5c(n4)CCCCCC5)n3)cc2C1` [Compound 12, 1-(5,6,7,8,9,10-hexahydrocycloocta[d]pyrimidin-2-yl)-N^3-(2-methyl-1,2,3,4-tetrahydroisoquinolin-7-yl)-1H-1,2,4-triazole-3,5-diamine], the 50% inhibitory concentration (IC50) was greater than 20000 nM.

On to `Nc1nc(Nc2ccc(N3CCN(c4ccc(F)cc4)CC3)cc2)nn1-c1ncc2c(n1)CCCCCC2` [Compound 13, N^3-(4-(4-(4-fluorophenyl)piperazin-1-yl)phenyl)-1-(5,6,7,8,9,10-hexahydrocycloocta[d]pyrimidin-2-yl)-1H-1,2,4-triazole-3,5-diamine], for which the IC50 was greater than 20000 nM.

Regarding `CCOC(=O)N1CCN(c2ccc(Nc3nc(N)n(-c4ncc5c(n4)CCCCCC5)n3)cc2F)CC1` [Compound 14, ethyl 4-(4-(5-amino-1-(5,6,7,8,9,10-hexahydrocycloocta[d]pyrimidin-2-yl)-1H-1,2,4-triazol-3-ylamino)-2-fluorophenyl)piperazine-1-carboxylate], the IC50 fell in the range of 1000 to 10000 nM.

Consider `CC(C)(COc1ccc(Nc2nc(N)n(-c3ncc4c(n3)CCCCCC4)n2)cc1)N1CCCC1` [Compound 15, 1-(5,6,7,8,9,10-hexahydrocycloocta[d]pyrimidin-2-yl)-N^3-(4-(2-methyl-2-(pyrrolidin-1-yl)propoxy)phenyl)-1H-1,2,4-triazole-3,5-diamine], for which the concentration for half-maximal inhibition (IC50) is less than 1000 nM.

Take `Nc1nc(Nc2ccc(N3CCN(C4CCCCC4)CC3)cc2)nn1-c1cc2c(nn1)CCCCCC2` [Compound 16, N^3-(4-(4-cyclohexylpiperazin-1-yl)phenyl)-1-(5,6,7,8,9,10-hexahydrocycloocta[c]pyridazin-3-yl)-1H-1,2,4-triazole-3,5-diamine]: the IC50 is less than 1000 nM.

Consider `Nc1nc(Nc2ccc(N3CCC(N4CCCC4)CC3)c(F)c2)nn1-c1cc2c(nn1)CCCCCC2` [Compound 17, N^3-(3-fluoro-4-(4-(pyrrolidin-1-yl)piperidin-1-yl)phenyl)-1-(5,6,7,8,9,10-hexahydrocycloocta[c]pyridazin-3-yl)-1H-1,2,4-triazole-3,5-diamine], for which the concentration for half-maximal inhibition (IC50) was less than 1000 nM.

As for `Nc1nc(Nc2ccc(OCCN3CCCC3)cc2)nn1-c1cc2c(nn1)CCCCCC2` [Compound 18, 1-(5,6,7,8,9,10-hexahydrocycloocta[c]pyridazin-3-yl)-N^3-(4-(2-(pyrrolidin-1-yl)ethoxy)phenyl)-1H-1,2,4-triazole-3,5-diamine], the IC50 was less than 1000 nM.
